In data set [1] the target is T1, aldehyde oxidase (Homo sapiens, UniProt Q06278).
T1 construct: purchased Gentest Corp., Woburn, MA, USA; host or cells: insect cells (baculovirus)
T1 sequence (Q06278 1-1338): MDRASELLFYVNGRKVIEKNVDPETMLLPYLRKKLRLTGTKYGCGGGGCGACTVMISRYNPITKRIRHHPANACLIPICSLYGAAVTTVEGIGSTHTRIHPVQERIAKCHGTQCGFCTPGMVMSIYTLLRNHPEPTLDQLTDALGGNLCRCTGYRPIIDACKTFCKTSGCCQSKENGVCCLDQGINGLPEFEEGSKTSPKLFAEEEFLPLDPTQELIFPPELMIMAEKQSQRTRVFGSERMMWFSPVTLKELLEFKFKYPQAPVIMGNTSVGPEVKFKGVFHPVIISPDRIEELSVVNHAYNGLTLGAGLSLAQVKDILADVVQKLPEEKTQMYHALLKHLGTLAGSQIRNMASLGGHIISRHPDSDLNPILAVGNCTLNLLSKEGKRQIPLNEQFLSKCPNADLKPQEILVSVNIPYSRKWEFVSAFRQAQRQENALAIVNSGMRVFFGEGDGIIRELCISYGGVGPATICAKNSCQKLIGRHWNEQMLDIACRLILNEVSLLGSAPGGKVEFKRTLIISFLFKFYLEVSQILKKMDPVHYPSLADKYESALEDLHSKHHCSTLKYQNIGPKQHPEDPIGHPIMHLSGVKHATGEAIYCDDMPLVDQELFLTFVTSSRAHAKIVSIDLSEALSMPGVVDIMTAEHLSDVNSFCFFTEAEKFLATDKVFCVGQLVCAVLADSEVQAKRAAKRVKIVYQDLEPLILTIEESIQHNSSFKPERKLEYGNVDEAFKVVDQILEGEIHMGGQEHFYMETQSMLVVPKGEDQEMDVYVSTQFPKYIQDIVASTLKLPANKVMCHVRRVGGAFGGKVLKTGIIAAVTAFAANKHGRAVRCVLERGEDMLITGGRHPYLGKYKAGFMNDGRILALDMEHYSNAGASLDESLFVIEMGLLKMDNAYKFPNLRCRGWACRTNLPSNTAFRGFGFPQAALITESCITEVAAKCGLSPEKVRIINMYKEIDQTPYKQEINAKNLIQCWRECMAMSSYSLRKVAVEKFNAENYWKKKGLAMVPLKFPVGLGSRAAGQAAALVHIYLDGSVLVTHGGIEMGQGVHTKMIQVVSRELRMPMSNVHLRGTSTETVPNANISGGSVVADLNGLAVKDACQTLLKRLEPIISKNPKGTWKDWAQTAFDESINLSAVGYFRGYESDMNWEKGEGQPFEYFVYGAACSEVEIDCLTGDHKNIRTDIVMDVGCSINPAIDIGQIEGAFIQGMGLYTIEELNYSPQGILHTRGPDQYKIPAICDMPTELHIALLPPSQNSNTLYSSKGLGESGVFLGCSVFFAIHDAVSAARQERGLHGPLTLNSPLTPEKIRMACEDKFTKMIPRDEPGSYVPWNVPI
Description: Oxidation of cabozantinib by recombinant aldehyde oxidase. Type of data set: in vitro ADME. To be noted: human recombinant enzyme, data not shown.

Data set [2] addresses T2, FMO3 (Homo sapiens, UniProt P31513).
T2 construct: purchased Gentest Corp., Woburn, MA, USA; host or cells: insect cells (baculovirus)
T2 sequence (P31513 1-532): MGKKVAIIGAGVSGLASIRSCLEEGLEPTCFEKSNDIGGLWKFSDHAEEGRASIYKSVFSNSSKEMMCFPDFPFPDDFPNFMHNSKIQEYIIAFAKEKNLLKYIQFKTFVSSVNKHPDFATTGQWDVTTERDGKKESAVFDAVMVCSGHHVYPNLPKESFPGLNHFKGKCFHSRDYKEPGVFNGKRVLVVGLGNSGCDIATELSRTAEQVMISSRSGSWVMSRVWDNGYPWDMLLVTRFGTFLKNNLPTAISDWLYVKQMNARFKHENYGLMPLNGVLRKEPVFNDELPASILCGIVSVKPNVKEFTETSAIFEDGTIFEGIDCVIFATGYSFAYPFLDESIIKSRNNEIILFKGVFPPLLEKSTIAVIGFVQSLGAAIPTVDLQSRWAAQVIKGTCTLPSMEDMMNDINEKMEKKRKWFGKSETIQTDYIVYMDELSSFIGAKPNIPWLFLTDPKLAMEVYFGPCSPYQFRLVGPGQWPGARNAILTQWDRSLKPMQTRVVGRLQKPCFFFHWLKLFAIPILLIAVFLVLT
Kind of data set: Oxidation of cabozantinib by recombinant FMO3. Type of data set: in vitro ADME. To be noted: human recombinant enzyme, data not shown.

Data set [3] deals with RET. To be noted: estimated; cited from earlier work.
Data set [4] has as its target CYP3A4 (Homo sapiens, UniProt P08684). To be noted: cited from earlier work.
Details of data set [5]: method as in earlier work. The following applies: cited from earlier work.
On the set-up of data set [6]: concentration or dose not given beside the values. The following applies: metastatic renal cell carcinoma patients; cited from earlier work.

This is an account of results in publication PMC7759869 (Biomedicines, 2020).

Each structure is given as a SMILES string.

CYP3A4, sequence (P08684 whole entry): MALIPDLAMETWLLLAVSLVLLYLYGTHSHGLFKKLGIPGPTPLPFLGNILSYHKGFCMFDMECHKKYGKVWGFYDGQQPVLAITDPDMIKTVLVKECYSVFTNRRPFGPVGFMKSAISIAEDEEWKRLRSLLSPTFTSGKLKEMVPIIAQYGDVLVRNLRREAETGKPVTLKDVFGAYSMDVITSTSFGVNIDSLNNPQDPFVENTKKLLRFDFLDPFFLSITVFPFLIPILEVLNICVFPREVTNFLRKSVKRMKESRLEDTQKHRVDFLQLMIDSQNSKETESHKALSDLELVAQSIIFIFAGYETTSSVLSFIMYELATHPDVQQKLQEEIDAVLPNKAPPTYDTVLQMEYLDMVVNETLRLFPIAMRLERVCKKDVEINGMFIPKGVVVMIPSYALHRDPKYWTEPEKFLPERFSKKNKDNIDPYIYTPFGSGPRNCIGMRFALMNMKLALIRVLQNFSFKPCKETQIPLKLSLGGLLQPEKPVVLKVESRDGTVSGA

Take `COc1cc2nccc(Oc3ccc(NC(=O)C4(C(=O)Nc5ccc(F)cc5)CC4)cc3)c2cc1OC` [cabozantinib, N′1-{4-[(6,7-dimethoxyquinolin-4-yl)oxy]phenyl}-N1-(4-fluorophenyl)cyclopropane-1,1-dicarboxamide]: the “Oxidation of cabozantinib by aldehyde oxidase” value in data set [1] was “ineffective”. Moreover, the “Oxidation of cabozantinib by FMO 3” value in data set [2] was “ineffective”. Further, the IC50 (as a rule, the concentration needed to halve the response being measured) in data set [3] was […]. The “Inhibition of CYP3A4-mediated testosterone 6β-hydroxylation” value in data set [4] is reported as “did not inhibit”. Also, the “Bound by proteins in human plasma” value in data set [5] was ≥ 99.7%. The “Plasma concentration, mean” value in data set [6] is […].
